Key:
Test in all cases: Proliferation assay, crystal violet staining
DU145 cells = conditions: Homo sapiens, DU-145, 96 h, read-out: Inhibition of DU145 cell proliferation, DU145 cells, 4 days incubation
Description: (§1) After 24 hours, the cells of one plate (zero plate) were dyed with crystal violet (see below), whereas the medium of the other plates was replaced with fresh culture medium (200 μl) to which the test substances were added in various concentrations (0 μM, and also in the range of 0.001-10 μM; the final concentration of the solvent dimethyl sulphoxide was 0.1 or 0.5%). The cells were incubated for 4 days in the presence of the test substances. […] After washing the fixed cells three times with water, the plates were dried at room temperature. The cells were stained by adding 100 μl/measurement point of a 0.1% strength crystal violet solution (pH adjusted to pH 3 by adding acetic acid). After washing the cells three times with water, the plates were dried at room temperature. The dye was dissolved by adding 100 μl/measurement point of a 10% strength acetic acid solution. […] The percentage change in cell growth was calculated by normalizing the measured values to the absorbance values of the zero plate (=0%) and the absorbance of the untreated (0 W) cells (=100%). The IC50 values were determined by means of a four parameter fit.

Caco-2 cells = assay type: cell-based; conditions: Homo sapiens, Caco-2, 96 h, 4 days incubation, read-out: Inhibition of Caco-2 cell proliferation
Description: as §1

HeLa-MaTu-ADR cells = assay type: cell-based; conditions: Homo sapiens, 96 h, 4 days incubation, read-out: Inhibition of HeLa-MaTu-ADR cell proliferation
Description: as §1

NCI-H460 cells = conditions: Homo sapiens, NCI-H460, 96 h, read-out: Inhibition of NCI-H460 cell proliferation, NCI-H460 cells, 4 days incubation
Description: as §1

HeLa cells = conditions: Homo sapiens, 96 h, read-out: Inhibition of HeLa cell proliferation, HeLa cells, 4 days incubation

Row | Compound | IC50 (HeLa cells) | further results
1 | CN=S(C)(=O)c1ccc(-c2cc(N3CCOCC3)nc3c(-c4ccn[nH]4)nccc23)cc1 (centres unmarked) [Example 5, 4-(4-(N,S-dimethylsulfonimidoyl)phenyl)-2-[morpholin-4-yl]-8-(1H-pyrazol-5-yl)-1,7-naphthyridine] |  | IC50 (DU145 cells): 368 nM; IC50 (Caco-2 cells): 2190 nM; IC50 (HeLa-MaTu-ADR cells): > 3000 nM; IC50 (NCI-H460 cells): 641 nM
2 | CS(=O)(=O)c1ccc(-c2cc(N3CCOCC3)nc3c(-c4cc[nH]n4)nccc23)cc1 [Example 7, 4-(4-methanesulphonylphenyl)-2-(morpholin-4-yl)-8-(1H-pyrazol-3-yl)-[1,7]naphthyridine] | 1330 nM | IC50 (DU145 cells): 1590 nM; IC50 (Caco-2 cells): 5950 nM; IC50 (NCI-H460 cells): 1020 nM
3 | CS(=O)(=O)c1ccc(-c2cc(N3CCOCC3)nc3c(-c4ccn[nH]4)nccc23)c(F)c1 [Example 24] |  | IC50 (DU145 cells): 1350 nM; IC50 (Caco-2 cells): 833 nM; IC50 (HeLa-MaTu-ADR cells): 3410 nM; IC50 (NCI-H460 cells): 378 nM
4 | CS(=O)(=O)C1(c2cc(N3CCOCC3)nc3c(-c4ccn[nH]4)nccc23)CC1 [Example 39, 4-(1-methanesulphonycyclopropyl)-2-(morpholin-4-yl)-8-(2H-pyrazol-3-yl)-[1,7]naphthyridine] | 1050 nM | IC50 (DU145 cells): 837 nM; IC50 (NCI-H460 cells): 400 nM
5 | C[C@@H]1COCCN1c1cc(OCCCCN)c2ccnc(-c3ccn[nH]3)c2n1 [Example 57, 4-({2-[(3R)-3-methylmorpholin-4-yl]-8-(1H-pyrazol-5-yl)-1,7-naphthyridin-4-yl}oxy)butan-1-amine] |  | IC50 (DU145 cells): 1560 nM; IC50 (NCI-H460 cells): 374 nM
6 | Clc1cc(N2CCOCC2)nc2c(-c3cc[nH]n3)nccc12 [Example 62, 4-chloro-2-morpholin-4-yl-8-(1H-pyrazol-3-yl)-[1,7]naphthyridine] | 164 nM | IC50 (NCI-H460 cells): > 3000 nM
7 | C[C@@H]1COCCN1c1cc(N2CCNCC2)c2ccnc(-c3ccn[nH]3)c2n1 [Example 66, 2-[(3R)-3-methylmorpholin-4-yl]-4-(piperazin-1-yl)-8-(1H-pyrazol-5-yl)-1,7-naphthyridine] |  | IC50 (Caco-2 cells): 3350 nM; IC50 (NCI-H460 cells): 127 nM
8 | c1cc(-c2nccc3c(N4CCn5ccnc5C4)cc(N4CCOCC4)nc23)[nH]n1 [Example 169, 4-(5,6-dihydroimidazo[1,2-a]pyrazin-7(8H)-yl)-2-(morpholin-4-yl)-8-(1H-pyrazol-5-yl)-1,7-naphthyridine] | 731 nM | IC50 (Caco-2 cells): > 3000 nM; IC50 (HeLa-MaTu-ADR cells): > 3000 nM
9 | CS(=O)(=O)Nc1ccccc1-c1cc(N2CCOCC2)nc2c(-c3ccn[nH]3)nccc12 [Example 322, N-{2-[2-(morpholin-4-yl)-8-(1H-pyrazol-5-yl)-1,7-naphthyridin-4-yl]phenyl}methanesulfonamide] | > 3000 nM | 
10 | CS(=O)(=O)Nc1ccc(-c2cc(N3CCOCC3)nc3c(-c4ccn[nH]4)nccc23)cc1 [Example 323, N-{4-[2-(morpholin-4-yl)-8-(1H-pyrazol-5-yl)-1,7-naphthyridin-4-yl]phenyl}methanesulfonamide] | 2220 nM | 
11 | CN(C)C(=O)c1ccc(-c2cc(N3CCOCC3)nc3c(-c4ccn[nH]4)nccc23)cc1 [Example 324, N,N-dimethyl-4-[2-(morpholin-4-yl)-8-(1H-pyrazol-5-yl)-1,7-naphthyridin-4-yl]benzamide] | 2420 nM | 
12 | C/C=C/c1cc(N2CCOCC2)nc2c(-c3ccn[nH]3)nccc12 [Example 325, 2-(morpholin-4-yl)-4-[(1E)-prop-1-en-1-yl]-8-(1H-pyrazol-5-yl)-1,7-naphthyridine] | 999 nM | 
13 | Oc1ccc(-c2cc(N3CCOCC3)nc3c(-c4ccn[nH]4)nccc23)cc1 [Example 326, 4-[2-(morpholin-4-yl)-8-(1H-pyrazol-5-yl)-1,7-naphthyridin-4-yl]phenol] | 2920 nM | 
14 | Fc1ccccc1-c1cc(N2CCOCC2)nc2c(-c3ccn[nH]3)nccc12 [Example 327, 4-(2-fluorophenyl)-2-(morpholin-4-yl)-8-(1H-pyrazol-5-yl)-1,7-naphthyridine] | 1890 nM | 
15 | O=C(NC1CC1)c1cccc(-c2cc(N3CCOCC3)nc3c(-c4ccn[nH]4)nccc23)c1 [Example 330, N-cyclopropyl-3-[2-(morpholin-4-yl)-8-(1H-pyrazol-5-yl)-1,7-naphthyridin-4-yl]benzamide] | > 3000 nM | 
16 | COc1ccc(-c2cc(N3CCOCC3)nc3c(-c4ccn[nH]4)nccc23)c(OC)c1 [Example 332, 4-(2,4-dimethoxyphenyl)-2-(morpholin-4-yl)-8-(1H-pyrazol-5-yl)-1,7-naphthyridine] | > 3000 nM | 
17 | Clc1ccccc1-c1cc(N2CCOCC2)nc2c(-c3ccn[nH]3)nccc12 [Example 333, 4-(2-chlorophenyl)-2-(morpholin-4-yl)-8-(1H-pyrazol-5-yl)-1,7-naphthyridine] | > 3000 nM | 
18 | Cc1ccc(C)c(-c2cc(N3CCOCC3)nc3c(-c4ccn[nH]4)nccc23)c1 [Example 334, 4-(2,5-dimethylphenyl)-2-(morpholin-4-yl)-8-(1H-pyrazol-5-yl)-1,7-naphthyridine] | > 3000 nM | 
19 | Nc1cccc(-c2cc(N3CCOCC3)nc3c(-c4ccn[nH]4)nccc23)c1 [Example 335, 3-[2-(morpholin-4-yl)-8-(1H-pyrazol-5-yl)-1,7-naphthyridin-4-yl]aniline] | 2960 nM | 
20 | Oc1cccc(-c2cc(N3CCOCC3)nc3c(-c4ccn[nH]4)nccc23)c1 [Example 337, 3-[2-(morpholin-4-yl)-8-(1H-pyrazol-5-yl)-1,7-naphthyridin-4-yl]phenol] | 1710 nM | 
21 | COc1ccc(F)cc1-c1cc(N2CCOCC2)nc2c(-c3ccn[nH]3)nccc12 [Example 339, 4-(5-fluoro-2-methoxyphenyl)-2-(morpholin-4-yl)-8-(1H-pyrazol-5-yl)-1,7-naphthyridine] | > 3000 nM | 
22 | Fc1ccc(-c2cc(N3CCOCC3)nc3c(-c4ccn[nH]4)nccc23)c(F)c1 [Example 340, 4-(2,4-difluorophenyl)-2-(morpholin-4-yl)-8-(1H-pyrazol-5-yl)-1,7-naphthyridine] | 2950 nM | 
23 | Fc1cccc(-c2cc(N3CCOCC3)nc3c(-c4ccn[nH]4)nccc23)c1F [Example 341, 4-(2,3-difluorophenyl)-2-(morpholin-4-yl)-8-(1H-pyrazol-5-yl)-1,7-naphthyridine] | 1590 nM | 
24 | Nc1ccccc1-c1cc(N2CCOCC2)nc2c(-c3ccn[nH]3)nccc12 [Example 343, 2-[2-(morpholin-4-yl)-8-(1H-pyrazol-5-yl)-1,7-naphthyridin-4-yl]aniline] | 1710 nM | 
25 | c1ccc(-c2ccccc2-c2cc(N3CCOCC3)nc3c(-c4ccn[nH]4)nccc23)cc1 [Example 345, 4-(biphenyl-2-yl)-2-(morpholin-4-yl)-8-(1H-pyrazol-5-yl)-1,7-naphthyridine] | > 3000 nM | 
26 | c1cc(-c2cc(N3CCOCC3)nc3c(-c4ccn[nH]4)nccc23)c2cccnc2c1 [Example 349, 2-(morpholin-4-yl)-8-(1H-pyrazol-5-yl)-4-(quinolin-5-yl)-1,7-naphthyridine] | > 3000 nM | 
27 | c1cncc(-c2cc(N3CCOCC3)nc3c(-c4ccn[nH]4)nccc23)c1 [Example 350, 2-(morpholin-4-yl)-8-(1H-pyrazol-5-yl)-4-(pyridin-3-yl)-1,7-naphthyridine] | > 3000 nM | 
28 | COc1cc(-c2cc(N3CCOCC3)nc3c(-c4ccn[nH]4)nccc23)ccn1 [Example 351, 4-(2-methoxypyridin-4-yl)-2-(morpholin-4-yl)-8-(1H-pyrazol-5-yl)-1,7-naphthyridine] | 3000 nM | 

— US10772893B2, “2-(morpholin-4-yl)-1,7-naphthyridines” (BAYER PHARMA AKTIENGESELLSCHAFT, priority 2014, dated 2020)
